According to patent publication US8323252B2, “Method of treating skin ulcers using oxidative reductive potential water solution” (priority 2005, dated 2012):
Read-outs that look alike come from different tables or passages of the source.

Assays:
[1] = test system: primary HDF cultures; conditions: human, 1 month, 5 μM
[2] = test system: 8-OHdG adducts in HDFs; conditions: human, 30 min, 500 μM
Experimental: DNA was extracted right after the exposure (T0, white bars) or three hours after the challenge period (T3, black bars). DNA was digested and the 8-OHdG adducts were measured by ELISA kit as per the manufacturer's instructions. Values are shown (ng/mL) as mean±SD (n=3).

[3] = test system: murine polychromatic erythrocytes; conditions: for PCE/NCE ratio: cyclophosphamide 8 mg/mL, 12.5 ml/kg i.p. on day 2
Experimental: The mammalian in vivo micronucleus test is used for the identification of substances which cause damage to chromosomes or the mitotic apparatus of murine polychromatic erythrocytes. This damage results in the formation of “micronuclei,” intracellular structures containing lagging chromosome fragments or isolated whole chromosomes. […] The positive control mice received a single intraperitoneal injection of cyclophosphamide (8 mg/mL, 12.5 ml/kg) on day 2. All mice were observed immediately after injection for any adverse reactions. […] On day 3, all mice were weighed and terminated.
The femurs were excised from the terminated mice, the bone marrow was extracted, and duplicate smear preparations were performed for each mouse. The bone marrow slides for each animal were read at 40× magnification. The ratio of polychromatic erythrocytes (PCE) to normochromatic erythrocytes (NCE), an index of bone marrow toxicity, was determined for each mouse by counting a total of at least 200 erythrocytes. Then a minimum of 2000 scoreable PCE per mouse were evaluated for the incidence of micronucleated polychromatic erythrocytes. Statistical analysis of the data were done using the Mann and Whitney test (at 5% risk threshold) from a statistical software package (Statview 5.0, SAS Institute Inc., USA).

Row | Structure (SMILES) | cells with increased SA-β-Gal expression [1] | increase of 8-OHdG adducts relative to control-treated or ORP water solution-treated cells [2] | PCE/NCE ratio ([3]; females) | number of polychromatic erythrocytes bearing micronuclei ([3]; males, ORP water solution = Microcyn 10%, 12.5 ml/kg i.p.) | PCE/NCE ratio ([3]; males)
1 | OO [HP, hydrogen peroxide] | 86% | about 25 fold | – | – | –
2 | O=P1(N(CCCl)CCCl)NCCCO1 (centres unmarked) [cyclophosphamide] | – | – | 0.73 | 11.0 | 0.77
